{"source": "paper PMC12586182", "about": "(Frontiers in Oncology, 2025)", "assay_in_all_cases": "Kinase panel profiling at 1 µmol/L (mobility shift assay, Carna)", "type_in_all_cases": "biochemical", "settings_in_all_cases": "1 µmol/L of BTK inhibitor", "key": {"[1]": {"target": "T1, DCAMKL2 (Homo sapiens, UniProt Q8N568)", "T1 construct": "purchased Carna Biosciences", "T1 sequence (Q8N568 1-766)": "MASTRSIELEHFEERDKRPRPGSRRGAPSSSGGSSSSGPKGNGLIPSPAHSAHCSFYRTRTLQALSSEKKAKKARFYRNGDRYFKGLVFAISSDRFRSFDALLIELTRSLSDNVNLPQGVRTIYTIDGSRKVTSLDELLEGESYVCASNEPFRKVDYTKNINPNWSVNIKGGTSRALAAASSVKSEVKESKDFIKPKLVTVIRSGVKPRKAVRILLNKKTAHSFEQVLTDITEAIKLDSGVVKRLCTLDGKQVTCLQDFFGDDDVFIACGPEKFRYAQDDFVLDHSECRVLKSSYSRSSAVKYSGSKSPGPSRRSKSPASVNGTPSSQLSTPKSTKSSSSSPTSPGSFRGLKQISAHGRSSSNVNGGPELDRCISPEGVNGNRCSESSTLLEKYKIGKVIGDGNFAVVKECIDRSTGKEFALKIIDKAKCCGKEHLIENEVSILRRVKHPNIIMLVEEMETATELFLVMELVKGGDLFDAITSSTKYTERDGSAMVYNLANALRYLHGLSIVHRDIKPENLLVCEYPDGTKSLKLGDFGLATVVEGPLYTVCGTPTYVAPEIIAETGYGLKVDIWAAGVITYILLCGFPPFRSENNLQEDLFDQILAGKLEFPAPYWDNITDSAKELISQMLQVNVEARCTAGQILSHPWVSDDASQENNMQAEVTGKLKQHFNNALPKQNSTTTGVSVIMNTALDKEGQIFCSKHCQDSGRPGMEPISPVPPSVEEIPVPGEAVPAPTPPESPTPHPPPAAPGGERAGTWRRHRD"}, "[2]": {"target": "T2, BRSK2 (Homo sapiens, UniProt Q8IWQ3)", "T2 construct": "purchased Carna Biosciences", "T2 sequence (Q8IWQ3 1-736)": "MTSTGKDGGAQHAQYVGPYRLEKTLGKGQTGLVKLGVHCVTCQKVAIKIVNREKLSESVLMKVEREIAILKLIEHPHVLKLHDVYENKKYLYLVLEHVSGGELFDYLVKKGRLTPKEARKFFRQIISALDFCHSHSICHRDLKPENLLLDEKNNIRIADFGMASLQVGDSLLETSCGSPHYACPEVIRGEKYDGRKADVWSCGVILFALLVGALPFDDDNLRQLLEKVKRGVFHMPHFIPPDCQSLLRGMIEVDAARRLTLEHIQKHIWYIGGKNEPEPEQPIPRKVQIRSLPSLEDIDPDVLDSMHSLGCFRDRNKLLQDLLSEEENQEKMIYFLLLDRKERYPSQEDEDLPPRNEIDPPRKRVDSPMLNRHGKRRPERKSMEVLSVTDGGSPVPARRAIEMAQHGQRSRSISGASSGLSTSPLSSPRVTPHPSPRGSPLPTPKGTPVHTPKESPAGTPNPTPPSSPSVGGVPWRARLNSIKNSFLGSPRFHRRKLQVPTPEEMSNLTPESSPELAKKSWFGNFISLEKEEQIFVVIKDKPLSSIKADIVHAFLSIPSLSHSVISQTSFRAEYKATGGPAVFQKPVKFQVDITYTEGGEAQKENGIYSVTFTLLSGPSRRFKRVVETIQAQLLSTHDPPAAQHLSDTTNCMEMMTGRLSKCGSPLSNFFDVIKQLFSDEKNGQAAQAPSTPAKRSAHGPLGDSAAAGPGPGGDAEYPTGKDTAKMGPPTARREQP"}, "[3]": {"target": "T3, HGK (Homo sapiens, UniProt O95819)", "T3 construct": "purchased Carna Biosciences", "T3 sequence (O95819 whole entry)": "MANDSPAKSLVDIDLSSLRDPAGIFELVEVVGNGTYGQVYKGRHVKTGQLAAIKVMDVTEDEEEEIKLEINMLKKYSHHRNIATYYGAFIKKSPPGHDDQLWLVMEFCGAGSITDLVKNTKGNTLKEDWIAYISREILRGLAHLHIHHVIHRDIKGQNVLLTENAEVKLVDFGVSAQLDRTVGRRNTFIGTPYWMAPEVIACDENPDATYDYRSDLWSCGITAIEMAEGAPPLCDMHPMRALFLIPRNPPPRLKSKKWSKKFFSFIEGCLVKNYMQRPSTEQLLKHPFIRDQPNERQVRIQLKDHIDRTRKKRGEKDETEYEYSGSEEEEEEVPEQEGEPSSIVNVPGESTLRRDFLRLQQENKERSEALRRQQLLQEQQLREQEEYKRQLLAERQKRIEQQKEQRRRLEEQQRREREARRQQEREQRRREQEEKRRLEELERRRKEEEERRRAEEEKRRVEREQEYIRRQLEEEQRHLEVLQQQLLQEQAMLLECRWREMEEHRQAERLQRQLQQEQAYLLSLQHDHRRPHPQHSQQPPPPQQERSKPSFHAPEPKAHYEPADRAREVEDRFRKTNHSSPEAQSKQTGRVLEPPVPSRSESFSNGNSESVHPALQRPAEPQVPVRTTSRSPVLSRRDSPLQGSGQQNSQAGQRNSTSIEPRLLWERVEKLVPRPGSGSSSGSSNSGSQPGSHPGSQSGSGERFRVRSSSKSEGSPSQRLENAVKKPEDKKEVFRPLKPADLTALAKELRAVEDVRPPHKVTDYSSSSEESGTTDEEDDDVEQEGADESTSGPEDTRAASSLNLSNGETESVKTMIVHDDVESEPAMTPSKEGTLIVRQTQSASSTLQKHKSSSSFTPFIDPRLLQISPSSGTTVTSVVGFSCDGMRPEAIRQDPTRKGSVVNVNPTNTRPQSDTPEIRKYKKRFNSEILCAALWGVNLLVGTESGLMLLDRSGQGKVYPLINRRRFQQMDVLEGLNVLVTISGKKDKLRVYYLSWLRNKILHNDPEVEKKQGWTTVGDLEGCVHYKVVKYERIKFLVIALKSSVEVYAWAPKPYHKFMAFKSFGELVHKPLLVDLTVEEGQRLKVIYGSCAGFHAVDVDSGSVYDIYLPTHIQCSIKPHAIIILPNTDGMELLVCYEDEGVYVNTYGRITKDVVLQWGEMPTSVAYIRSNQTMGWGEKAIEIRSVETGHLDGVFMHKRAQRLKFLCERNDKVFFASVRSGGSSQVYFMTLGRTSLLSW"}, "[4]": {"target": "T4, DYRK1B (Homo sapiens, UniProt Q9Y463)", "T4 construct": "purchased Carna Biosciences", "T4 sequence (Q9Y463 whole entry)": "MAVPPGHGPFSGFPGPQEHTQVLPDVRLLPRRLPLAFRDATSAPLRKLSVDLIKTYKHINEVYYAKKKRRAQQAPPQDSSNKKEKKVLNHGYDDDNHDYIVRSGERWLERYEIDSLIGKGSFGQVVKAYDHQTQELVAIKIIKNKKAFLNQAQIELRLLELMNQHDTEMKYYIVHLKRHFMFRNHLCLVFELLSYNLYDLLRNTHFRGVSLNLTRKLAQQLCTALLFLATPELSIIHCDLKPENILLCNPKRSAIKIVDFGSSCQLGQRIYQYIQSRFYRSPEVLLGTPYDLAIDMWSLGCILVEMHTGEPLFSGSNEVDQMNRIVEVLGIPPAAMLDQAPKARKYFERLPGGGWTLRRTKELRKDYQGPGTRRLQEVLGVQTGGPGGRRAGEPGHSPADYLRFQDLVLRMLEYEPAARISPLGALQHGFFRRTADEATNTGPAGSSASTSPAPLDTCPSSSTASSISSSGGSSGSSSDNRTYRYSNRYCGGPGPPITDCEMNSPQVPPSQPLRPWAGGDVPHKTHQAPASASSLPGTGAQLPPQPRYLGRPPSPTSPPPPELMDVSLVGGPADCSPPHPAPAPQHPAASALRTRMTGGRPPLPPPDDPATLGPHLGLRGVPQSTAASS"}, "[5]": {"target": "T5, SLK (Homo sapiens, UniProt Q9H2G2)", "T5 construct": "purchased Carna Biosciences", "T5 sequence (Q9H2G2 whole entry)": "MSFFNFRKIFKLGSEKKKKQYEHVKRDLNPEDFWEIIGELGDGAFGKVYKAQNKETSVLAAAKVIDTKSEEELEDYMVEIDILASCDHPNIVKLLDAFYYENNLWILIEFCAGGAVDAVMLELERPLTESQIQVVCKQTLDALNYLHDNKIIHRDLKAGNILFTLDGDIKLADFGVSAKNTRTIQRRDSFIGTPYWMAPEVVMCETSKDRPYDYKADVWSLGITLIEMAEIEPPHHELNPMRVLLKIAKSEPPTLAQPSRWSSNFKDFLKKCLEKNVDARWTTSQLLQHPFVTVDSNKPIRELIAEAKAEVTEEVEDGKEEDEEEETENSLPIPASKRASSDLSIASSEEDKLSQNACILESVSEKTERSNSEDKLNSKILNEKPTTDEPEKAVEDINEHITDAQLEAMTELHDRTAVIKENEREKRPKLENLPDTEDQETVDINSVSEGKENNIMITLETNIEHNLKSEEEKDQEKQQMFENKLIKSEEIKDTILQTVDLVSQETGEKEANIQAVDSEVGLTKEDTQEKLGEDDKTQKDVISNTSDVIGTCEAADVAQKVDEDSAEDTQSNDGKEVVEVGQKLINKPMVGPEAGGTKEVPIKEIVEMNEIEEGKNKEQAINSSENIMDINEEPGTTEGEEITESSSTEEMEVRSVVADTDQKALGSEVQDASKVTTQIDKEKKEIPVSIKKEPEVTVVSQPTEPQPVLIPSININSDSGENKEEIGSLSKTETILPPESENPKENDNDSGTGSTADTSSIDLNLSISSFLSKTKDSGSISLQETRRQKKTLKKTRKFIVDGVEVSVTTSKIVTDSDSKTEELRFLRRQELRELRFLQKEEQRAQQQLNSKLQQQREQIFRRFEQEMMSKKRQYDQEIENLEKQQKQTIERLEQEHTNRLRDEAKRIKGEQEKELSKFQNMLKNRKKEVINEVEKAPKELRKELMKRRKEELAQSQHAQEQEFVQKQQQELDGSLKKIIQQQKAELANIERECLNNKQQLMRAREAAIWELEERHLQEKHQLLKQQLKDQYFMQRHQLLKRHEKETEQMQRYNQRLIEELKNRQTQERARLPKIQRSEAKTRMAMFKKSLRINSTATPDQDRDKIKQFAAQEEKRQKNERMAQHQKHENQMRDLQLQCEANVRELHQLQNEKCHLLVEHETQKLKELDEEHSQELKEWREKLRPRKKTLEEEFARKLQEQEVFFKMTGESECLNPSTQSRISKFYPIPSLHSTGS"}, "[6]": {"target": "T6, PBK (Homo sapiens, UniProt Q96KB5)", "T6 construct": "purchased Carna Biosciences", "T6 sequence (Q96KB5 1-322)": "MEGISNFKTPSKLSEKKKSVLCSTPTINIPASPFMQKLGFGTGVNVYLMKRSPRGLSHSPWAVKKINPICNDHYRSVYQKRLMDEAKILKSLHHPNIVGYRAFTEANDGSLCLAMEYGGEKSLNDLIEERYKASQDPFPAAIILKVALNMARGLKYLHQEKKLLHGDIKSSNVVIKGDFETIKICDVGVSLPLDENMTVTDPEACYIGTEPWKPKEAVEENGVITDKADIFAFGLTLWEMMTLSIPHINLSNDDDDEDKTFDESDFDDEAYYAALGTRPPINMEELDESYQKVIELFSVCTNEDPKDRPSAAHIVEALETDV"}, "[7]": {"target": "T7, EPHA4 (Homo sapiens, UniProt P54764)", "T7 construct": "purchased Carna Biosciences"}, "[8]": {"target": "T8, PKR (Homo sapiens, UniProt P19525)", "T8 construct": "purchased Carna Biosciences", "T8 sequence (P19525 whole entry)": "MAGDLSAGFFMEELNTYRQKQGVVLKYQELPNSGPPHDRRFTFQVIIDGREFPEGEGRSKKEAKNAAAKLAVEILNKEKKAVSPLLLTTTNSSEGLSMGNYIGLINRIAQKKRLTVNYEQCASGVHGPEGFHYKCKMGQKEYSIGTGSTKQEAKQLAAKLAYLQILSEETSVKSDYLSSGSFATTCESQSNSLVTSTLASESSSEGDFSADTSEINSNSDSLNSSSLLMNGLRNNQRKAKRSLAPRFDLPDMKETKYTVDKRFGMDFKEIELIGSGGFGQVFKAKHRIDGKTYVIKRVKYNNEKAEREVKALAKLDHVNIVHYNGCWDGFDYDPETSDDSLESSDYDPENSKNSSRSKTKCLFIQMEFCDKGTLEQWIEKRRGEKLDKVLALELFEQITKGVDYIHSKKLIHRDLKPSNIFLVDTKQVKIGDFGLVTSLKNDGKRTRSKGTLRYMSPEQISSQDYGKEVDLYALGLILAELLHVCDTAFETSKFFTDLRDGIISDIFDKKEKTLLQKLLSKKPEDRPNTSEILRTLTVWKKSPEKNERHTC"}, "[9]": {"target": "T9, PAK2 (Homo sapiens, UniProt Q13177)", "T9 construct": "purchased Carna Biosciences", "T9 sequence (Q13177 whole entry)": "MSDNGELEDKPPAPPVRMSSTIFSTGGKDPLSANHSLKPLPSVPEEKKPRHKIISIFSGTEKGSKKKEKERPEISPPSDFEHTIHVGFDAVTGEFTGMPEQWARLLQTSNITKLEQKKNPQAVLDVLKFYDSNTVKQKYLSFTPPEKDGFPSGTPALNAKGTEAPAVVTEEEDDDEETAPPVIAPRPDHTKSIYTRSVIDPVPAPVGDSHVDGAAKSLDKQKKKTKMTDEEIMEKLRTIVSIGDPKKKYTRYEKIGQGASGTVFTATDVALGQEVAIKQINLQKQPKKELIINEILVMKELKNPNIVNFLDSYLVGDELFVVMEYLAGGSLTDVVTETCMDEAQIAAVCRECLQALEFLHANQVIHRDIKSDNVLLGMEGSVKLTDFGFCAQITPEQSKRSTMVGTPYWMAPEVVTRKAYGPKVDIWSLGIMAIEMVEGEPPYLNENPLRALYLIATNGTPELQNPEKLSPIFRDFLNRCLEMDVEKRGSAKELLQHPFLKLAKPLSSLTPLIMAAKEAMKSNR"}, "[10]": {"target": "T10, MINK (Homo sapiens, UniProt Q8N4C8)", "T10 construct": "purchased Carna Biosciences"}, "[11]": {"target": "T11, CHK1 (Homo sapiens, UniProt O14757)", "T11 construct": "purchased Carna Biosciences", "T11 sequence (O14757 1-476)": "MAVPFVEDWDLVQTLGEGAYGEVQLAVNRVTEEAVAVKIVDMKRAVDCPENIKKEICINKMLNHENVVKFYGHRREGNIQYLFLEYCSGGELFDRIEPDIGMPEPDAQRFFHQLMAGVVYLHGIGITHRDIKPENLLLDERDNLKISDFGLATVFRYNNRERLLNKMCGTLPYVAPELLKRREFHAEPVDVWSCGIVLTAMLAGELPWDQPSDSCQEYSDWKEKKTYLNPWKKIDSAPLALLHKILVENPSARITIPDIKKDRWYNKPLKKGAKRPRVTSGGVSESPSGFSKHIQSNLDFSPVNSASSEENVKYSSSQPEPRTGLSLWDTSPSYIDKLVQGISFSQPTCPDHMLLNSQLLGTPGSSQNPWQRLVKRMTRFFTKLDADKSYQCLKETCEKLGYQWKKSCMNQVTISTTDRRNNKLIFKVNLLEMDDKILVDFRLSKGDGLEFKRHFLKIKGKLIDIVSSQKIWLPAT"}, "[12]": {"target": "T12, PDHK2 (Homo sapiens, UniProt Q15119)", "T12 construct": "purchased Carna Biosciences"}, "[13]": {"target": "T13, NDR2 (Homo sapiens, UniProt Q9Y2H1)", "T13 construct": "purchased Carna Biosciences", "T13 sequence (Q9Y2H1 whole entry)": "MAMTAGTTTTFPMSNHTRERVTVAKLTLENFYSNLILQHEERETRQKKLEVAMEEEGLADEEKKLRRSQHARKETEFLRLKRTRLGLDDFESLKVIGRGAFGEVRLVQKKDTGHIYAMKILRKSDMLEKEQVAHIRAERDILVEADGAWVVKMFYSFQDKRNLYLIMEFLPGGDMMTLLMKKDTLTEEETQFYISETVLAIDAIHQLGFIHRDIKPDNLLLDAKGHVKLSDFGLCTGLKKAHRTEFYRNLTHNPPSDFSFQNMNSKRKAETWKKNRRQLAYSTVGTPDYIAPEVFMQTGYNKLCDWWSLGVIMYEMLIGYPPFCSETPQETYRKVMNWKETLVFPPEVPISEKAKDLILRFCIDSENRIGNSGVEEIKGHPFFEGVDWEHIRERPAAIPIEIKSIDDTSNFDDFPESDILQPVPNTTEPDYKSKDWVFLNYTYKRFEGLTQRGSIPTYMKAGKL"}}}
{"smiles": "CC#CC(=O)N1CCC[C@H]1c1nc(-c2ccc(C(=O)Nc3ccccn3)cc2)c2c(N)nccn12", "note": "[acalabrutinib]", "values": [{"measurement": "Percentage inhibition of kinase enzyme activity", "setting": "[1]", "result": 4.63, "unit": "%"}, {"measurement": "Percentage inhibition of kinase enzyme activity", "setting": "[2]", "result": -10.15, "unit": "%"}, {"measurement": "Percentage inhibition of kinase enzyme activity", "setting": "[3]", "result": -1.42, "unit": "%"}, {"measurement": "Percentage inhibition of kinase enzyme activity", "setting": "[4]", "result": -19.49, "unit": "%"}, {"measurement": "Percentage inhibition of kinase enzyme activity", "setting": "[5]", "result": 1.61, "unit": "%"}, {"measurement": "Percentage inhibition of kinase enzyme activity", "setting": "[6]", "result": -15.29, "unit": "%"}, {"measurement": "Percentage inhibition of kinase enzyme activity", "setting": "[7]", "result": -3.03, "unit": "%"}, {"measurement": "Percentage inhibition of kinase enzyme activity", "setting": "[8]", "result": 7.19, "unit": "%"}, {"measurement": "Percentage inhibition of kinase enzyme activity", "setting": "[9]", "result": -5.20, "unit": "%"}, {"measurement": "Percentage inhibition of kinase enzyme activity", "setting": "[10]", "result": -1.13, "unit": "%"}, {"measurement": "Percentage inhibition of kinase enzyme activity", "setting": "[11]", "result": -6.98, "unit": "%"}, {"measurement": "Percentage inhibition of kinase enzyme activity", "setting": "[12]", "result": 0.16, "unit": "%"}, {"measurement": "Percentage inhibition of kinase enzyme activity", "setting": "[13]", "result": -6.41, "unit": "%"}]}
{"smiles": "C=CC(=O)N1CCC([C@@H]2CCNc3c(C(N)=O)c(-c4ccc(Oc5ccccc5)cc4)nn32)CC1", "note": "[zanubrutinib]", "values": [{"measurement": "Percentage inhibition of kinase enzyme activity", "setting": "[7]", "result": 0.04, "unit": "%"}, {"measurement": "Percentage inhibition of kinase enzyme activity", "setting": "[9]", "result": 9.82, "unit": "%"}, {"measurement": "Percentage inhibition of kinase enzyme activity", "setting": "[13]", "result": 0.50, "unit": "%"}]}
{"smiles": "O=C(c1ccc(Oc2ccccc2)cc1Cl)c1c[nH]c2ncnc(N[C@@H]3CC[C@@H](CO)OC3)c12", "note": "[nemtabrutinib]", "values": [{"measurement": "Percentage inhibition of kinase enzyme activity", "setting": "[1]", "result": -1.82, "unit": "%"}, {"measurement": "Percentage inhibition of kinase enzyme activity", "setting": "[2]", "result": 15.84, "unit": "%"}, {"measurement": "Percentage inhibition of kinase enzyme activity", "setting": "[3]", "result": 72.78, "unit": "%"}, {"measurement": "Percentage inhibition of kinase enzyme activity", "setting": "[4]", "result": -3.59, "unit": "%"}, {"measurement": "Percentage inhibition of kinase enzyme activity", "setting": "[5]", "result": 52.74, "unit": "%"}, {"measurement": "Percentage inhibition of kinase enzyme activity", "setting": "[6]", "result": -7.49, "unit": "%"}, {"measurement": "Percentage inhibition of kinase enzyme activity", "setting": "[7]", "result": 82.34, "unit": "%"}, {"measurement": "Percentage inhibition of kinase enzyme activity", "setting": "[8]", "result": 29.57, "unit": "%"}, {"measurement": "Percentage inhibition of kinase enzyme activity", "setting": "[9]", "result": 93.68, "unit": "%"}, {"measurement": "Percentage inhibition of kinase enzyme activity", "setting": "[10]", "result": 46.67, "unit": "%"}, {"measurement": "Percentage inhibition of kinase enzyme activity", "setting": "[11]", "result": 12.30, "unit": "%"}, {"measurement": "Percentage inhibition of kinase enzyme activity", "setting": "[12]", "result": 4.18, "unit": "%"}, {"measurement": "Percentage inhibition of kinase enzyme activity", "setting": "[13]", "result": -0.25, "unit": "%"}]}
{"smiles": "COc1ccc(F)cc1C(=O)NCc1ccc(-c2nn([C@@H](C)C(F)(F)F)c(N)c2C(N)=O)cc1", "note": "[pirtobrutinib]", "values": [{"measurement": "Percentage inhibition of kinase enzyme activity", "setting": "[1]", "result": 0.08, "unit": "%"}, {"measurement": "Percentage inhibition of kinase enzyme activity", "setting": "[2]", "result": 7.17, "unit": "%"}, {"measurement": "Percentage inhibition of kinase enzyme activity", "setting": "[3]", "result": 3.60, "unit": "%"}, {"measurement": "Percentage inhibition of kinase enzyme activity", "setting": "[4]", "result": 12.04, "unit": "%"}, {"measurement": "Percentage inhibition of kinase enzyme activity", "setting": "[5]", "result": -0.40, "unit": "%"}, {"measurement": "Percentage inhibition of kinase enzyme activity", "setting": "[6]", "result": -3.79, "unit": "%"}, {"measurement": "Percentage inhibition of kinase enzyme activity", "setting": "[7]", "result": 9.50, "unit": "%"}, {"measurement": "Percentage inhibition of kinase enzyme activity", "setting": "[8]", "result": 7.39, "unit": "%"}, {"measurement": "Percentage inhibition of kinase enzyme activity", "setting": "[9]", "result": 8.29, "unit": "%"}, {"measurement": "Percentage inhibition of kinase enzyme activity", "setting": "[10]", "result": -0.79, "unit": "%"}, {"measurement": "Percentage inhibition of kinase enzyme activity", "setting": "[11]", "result": 8.67, "unit": "%"}, {"measurement": "Percentage inhibition of kinase enzyme activity", "setting": "[12]", "result": 0.06, "unit": "%"}, {"measurement": "Percentage inhibition of kinase enzyme activity", "setting": "[13]", "result": -4.16, "unit": "%"}]}
{"smiles": "C=CC(=O)N1CCC[C@@H](n2nc(-c3ccc(Oc4ccccc4)cc3)c3c(N)ncnc32)C1", "note": "[ibrutinib]", "values": [{"measurement": "Percentage inhibition of kinase enzyme activity", "setting": "[1]", "result": -9.45, "unit": "%"}, {"measurement": "Percentage inhibition of kinase enzyme activity", "setting": "[2]", "result": 15.84, "unit": "%"}, {"measurement": "Percentage inhibition of kinase enzyme activity", "setting": "[3]", "result": -0.0249, "unit": "%"}, {"measurement": "Percentage inhibition of kinase enzyme activity", "setting": "[4]", "result": 1.91, "unit": "%"}, {"measurement": "Percentage inhibition of kinase enzyme activity", "setting": "[5]", "result": 12.11, "unit": "%"}, {"measurement": "Percentage inhibition of kinase enzyme activity", "setting": "[6]", "result": -9.30, "unit": "%"}, {"measurement": "Percentage inhibition of kinase enzyme activity", "setting": "[7]", "result": 12.63, "unit": "%"}, {"measurement": "Percentage inhibition of kinase enzyme activity", "setting": "[8]", "result": 5.63, "unit": "%"}, {"measurement": "Percentage inhibition of kinase enzyme activity", "setting": "[9]", "result": -5.81, "unit": "%"}, {"measurement": "Percentage inhibition of kinase enzyme activity", "setting": "[10]", "result": -6.41, "unit": "%"}, {"measurement": "Percentage inhibition of kinase enzyme activity", "setting": "[11]", "result": 10.13, "unit": "%"}, {"measurement": "Percentage inhibition of kinase enzyme activity", "setting": "[12]", "result": -1.08, "unit": "%"}, {"measurement": "Percentage inhibition of kinase enzyme activity", "setting": "[13]", "result": 3.47, "unit": "%"}]}
